In patent US20140073639A1 (priority 2012, published 2014):

Experiments:
B. Anthracis = assay: microbe, parasite or virus in culture; format: cell-based; details: for inhibition at 3 µM / inhibition at 10 µM / inhibition at 30 µM: Bacillus anthracis; for inhibition at 3 µM: read-out: B. Anthracis 3 μM (growth inhibition); for inhibition at 10 µM: read-out: B. Anthracis 10 μM (growth inhibition); for inhibition at 30 µM: read-out: B. Anthracis 30 μM (growth inhibition)
S. MRSA = assay: microbe, parasite or virus in culture; format: cell-based; details: for inhibition at 3 µM / inhibition at 10 µM / inhibition at 30 µM: Staphylococcus aureus, MRSA; for inhibition at 3 µM: read-out: S. MRSA 3 μM (growth inhibition); for inhibition at 10 µM: read-out: S. MRSA 10 μM (growth inhibition); for inhibition at 30 µM: read-out: S. MRSA 30 μM (growth inhibition)

| SMILES | B. Anthracis 10 μM (growth inhibition) (B. Anthracis; 10 μM) | B. Anthracis 30 μM (growth inhibition) (B. Anthracis; 30 μM) | S. MRSA 10 μM (growth inhibition) (S. MRSA; 10 μM) | S. MRSA 30 μM (growth inhibition) (S. MRSA; 30 μM) | inhibition at 3 µM (B. Anthracis) [%] | inhibition at 10 µM (B. Anthracis; 10 μM) [%] | inhibition at 30 µM (B. Anthracis; 30 μM) [%] | inhibition at 3 µM (S. MRSA) [%] | inhibition at 10 µM (S. MRSA; 10 μM) [%] | inhibition at 30 µM (S. MRSA; 30 μM) [%] |
| --- | --- | --- | --- | --- | --- | --- | --- | --- | --- | --- |
| O=C1Nc2ccc(Br)cc2/C1=C1/SC(=S)N(C(Cc2ccccc2)C(=O)O)C1=O (centres unmarked) [Cmpd 22] | 83.27 | 90.11 | 10.74 | 86.76 |  |  |  |  |  |  |
| CN1C(=O)C(Cc2ccc(-c3ccc(Cl)c(Cl)c3)o2)C(=O)N(C)C1=O [Cmpd 23] |  |  |  |  | -8.49 | 1.54 | 10.7 | -8.09 | -7.35 | 0 |
| CCc1ccccc1N1C(=O)/C(=C/c2ccc(-c3cc(C(=O)O)ccc3Cl)o2)C(=O)NC1=S [Cmpd 24] |  |  |  |  | -10.8 | -4.63 | -10.8 | -2.94 | 2.2 | -5.88 |
| O=C1NC(=S)N(c2cccc(Cl)c2)C(=O)/C1=C/c1ccc(-c2cc(C(=O)O)ccc2Cl)o1 [Cmpd 25] |  |  |  |  | -10.8 | -3.09 | -3.09 | -2.21 | -4.41 | -5.15 |
| O=C1NC(=S)N(c2ccc(Cl)cc2)C(=O)/C1=C/c1ccc(-c2ccccc2C(=O)O)o1 [Cmpd 26] |  |  |  |  | 2.32 | 97 | 100 | 1.47 | 16.1 | 92.4 |
| CCOc1cccc(N2C(=O)/C(=C/c3ccc(-c4cc(C(=O)O)ccc4Cl)o3)C(=O)NC2=S)c1 [Cmpd 27] |  |  |  |  | -9.26 | 0 | -11.6 | 0.74 | 8.82 | -0.74 |
| O=C1NC(=S)NC(=O)C1=Cc1ccc(-c2cccc(C(=O)O)c2)o1 [Cmpd 28] |  |  |  |  | -9.26 | -3.09 | -13.1 | -0.74 | -2.21 | -3.68 |
| CN1C(=O)/C(=C/c2ccc(-c3ccc(Br)c(Cl)c3)o2)C(=O)NC1=S [Cmpd 29] |  |  |  |  |  | 80 | 90.1 |  | 52.9 | 86.8 |
| CCN1C(=O)NC(=O)/C(=C\c2ccc(-c3ccc(Cl)c(C(=O)O)c3)o2)C1=O [Cmpd 30] |  |  |  |  | -8.49 | 1 | -11.6 | 1.47 | -2.94 | -4.41 |
| COc1ccc(-c2ccc(/C=C3/NC(=S)N(C(Cc4ccccc4)C(=O)O)C3=O)s2)cc1 (centres unmarked) [Cmpd 33] |  |  |  |  | -3.85 | 0 | 100 | -2.94 | -13.2 | 18.5 |
| O=C(O)C(Cc1ccccc1)N1C(=O)/C(=C\c2ccc(-c3ccc(F)cc3)s2)NC1=S (centres unmarked) [Cmpd 34] |  |  |  |  | 0 | 6.99 | 98.8 | -15.8 | -24.8 | 46.2 |
| O=C(O)C(Cc1ccccc1)N1C(=O)/C(=C\c2ccc(-c3ccc(Cl)cc3)s2)NC1=S (centres unmarked) [Cmpd 35] |  |  |  |  | -5.4 | 100 | 100 | -2.94 | -1.47 | 91 |
| O=C(O)C(Cc1ccccc1)N1C(=O)/C(=C\c2ccc(-c3ccc(Br)cc3)s2)NC1=S (centres unmarked) [Cmpd 36] |  |  |  |  | 76.9 | 97.7 | 96.7 | -19.2 | 91.1 | 91.1 |
| O=C(O)C(Cc1ccccc1)N1C(=O)/C(=C\c2ccc(Br)s2)NC1=S (centres unmarked) [Cmpd 37] |  |  |  |  |  |  | 0 |  |  | -6.27 |
| O=C(O)C(Cc1ccccc1)N1C(=O)/C(=C\c2ccc(-c3ccc(Br)cc3)o2)NC1=S (centres unmarked) [Cmpd 39] |  |  |  |  | 72.6 | 98.8 | 98.8 | -9.55 | 92.5 | 95.4 |
| O=C(O)C(Cc1ccccc1)N1C(=O)/C(=C\c2ccc(-c3ccc(Br)c(Cl)c3)o2)NC1=S (centres unmarked) [Cmpd 40] |  |  |  |  | 98.1 | 98.1 | 98.1 | 17.9 | 95.7 | 95.7 |
| O=C(O)C(Cc1ccccc1)N1C(=O)/C(=C\c2ccc(-c3ccc(Br)c(Cl)c3)s2)NC1=S (centres unmarked) [Cmpd 41] |  |  |  |  | 19.5 | 8.15 | 94.5 |  | -7.45 | -0.89 |
| O=C(O)C(Cc1ccccc1)N1C(=O)/C(=C\c2ccc(-c3ccc(Cl)c(Cl)c3)o2)NC1=S (centres unmarked) [Cmpd 42] |  |  |  |  | 96.2 | 99.5 | 96.7 |  | 98.7 | 94.5 |
| O=C(O)C(Cc1ccccc1)N1C(=O)/C(=C\c2ccc(-c3ccc(OC(F)(F)F)cc3)o2)NC1=S (centres unmarked) [Cmpd 43] |  |  |  |  | 8.01 | 96.7 | 96.6 | -1.32 | -6.26 | 95.2 |
| O=C(O)C(Cc1ccccc1)N1C(=O)/C(=C\c2ccc(-c3ccc(I)cc3)o2)NC1=S (centres unmarked) [Cmpd 45] |  |  |  |  | 49.2 | 97.4 | 96.4 | -1.84 | 88.2 | 92.7 |
